From patent publication US20240252506A1 (Hoffmann-La Roche Inc., priority 2021, published 2024)
Converted amounts (≈) assume the structure as drawn. Structures can show the parent of a compound that is named as a salt. Where two headings read alike, the source gives them in different places.

Tested on: Escherichia coli ATCC 25922
Assay: Minimal Inhibitory Concentration (MIC) determination, broth microdilution (CLSI M07-A10)
Assay type: cell-based
Conditions: for MIC: Escherichia coli; for Escherichia coli growth inhibition MIC: strain Escherichia coli ATCC 25922, 18-24 hours at 35±2° C.
Protocol: Minimal Inhibitory Concentration (MIC) Determination:
The MIC of antibacterial compounds against multiple species and strains was determined using the broth microdilution method according to M07-A10 Clinical and Laboratory Standards Institute (CLSI) guidelines, using the appropriate broth medium. In short, the compound plates were prepared by dispensing 100 μL of each stock solution in the first well of a 96 well microtiter plate (MTP) at a concentration 100-fold higher than the final concentration desired in broth. Eleven serial 2-fold dilutions of the highest concentration were made in DMSO for new compounds and in water (or appropriate solution) for reference compounds [2]. 1 μL of each well was transferred in a new MTP, which served as the test plate by subsequent inoculation. This bacterial suspension was prepared from strains that were first sub-cultured on agar plates and incubated for 18-24 hours as appropriate. Following incubation, the inoculum was prepared from isolated colonies and adjusted to 0.5 McFarland turbidity standard (1 to 2×10^8 Colony Forming Units (CFU)/mL) in 0.9% saline. The bacterial suspension was then diluted 1:200 in appropriate sterile medium and within 15 minutes 100 μL/well were dispensed. Negative controls (lack of bacterial cells) and growth control wells (lack of compound) were included in all plates. MTPs were incubated for 18-24 hours at 35±2° C. in ambient air. The MIC value of each compound, expressed as μg/mL, was determined as the lowest concentration required for complete growth inhibition (no visible growth). • [1] CLSI (2015) Methods for dilution antimicrobial susceptibility tests for bacteria that grow aerobically; Approved Standard, Tenth Edition. CLSI Document M7-A10 (ISBN 1-56238-987-4). Wayne, PA: Clinical and Laboratory Standards Institute, 19087, USA. • [2] CLSI (2017) Performance Standards for Antimicrobial Susceptibility Testing; Twenty-Fifth Informational Supplement. CLSI Document M100-S27, CLSI, Wayne, Pennsylvania 19087, USA.
Table 1 provides the Minimal Inhibitory Concentrations (MIC) in micrograms per millilitre of the compounds of present invention obtained against the strain Escherichia coli ATCC 25922.

[1] = ATCC25922, strain Escherichia coli ATCC 25922, 18-24 hours at 35±2° C., lowest concentration for complete growth inhibition (no visible growth), read-out: Escherichia coli growth inhibition MIC
[2] = lowest concentration for complete growth inhibition (no visible growth)
[3] = lowest concentration for complete growth inhibition (no visible growth), formic acid

Row | Structure (SMILES) | MIC [1] [mg/L] | further results
1 | O=C1COc2ncc(N3CC4(CCN(CC5Cc6cc7nc([C@H]8CCN8)oc7c(F)c6C5)CC4)OC3=O)nc2N1 (single isomer, unassigned) [Example 108] | 0.25 (≈ 0.455 µM) | –
2 | O=C1COc2ncc(N3CC4(CCN(CC5Cc6cc7nn(C8CNC8)nc7c(F)c6C5)CC4)OC3=O)nc2N1 (single isomer, unassigned) [Example 109, 6-[2-oxo-8-[[2-(azetidin-3-yl)-8-fluoro-6,7-dihydro-5H-cyclopenta[f]benzotriazol-6-yl]methyl]-1-oxa-3,8-diazaspiro[4.5]decan-3-yl]-4H-pyrazino[2,3-b][1,4]oxazin-3-one] | 0.5 (≈ 0.91 µM) | –
3 | O=C1COc2ncc(N3CC4(CCN(CC5Cc6cc7nn(C8CNC8)nc7c(F)c6C5)CC4)OC3=O)nc2N1 (single isomer, unassigned) [Example 110, 6-[2-oxo-8-[[2-(azetidin-3-yl)-8-fluoro-6,7-dihydro-5H-cyclopenta[f]benzotriazol-6-yl]methyl]-1-oxa-3,8-diazaspiro[4.5]decan-3-yl]-4H-pyrazino[2,3-b][1,4]oxazin-3-one] | – | Escherichia coli growth inhibition MIC [2]: 1 mg/L
4 | O=C1COc2ccc(N3CC4(CCN(CC5Cc6cc7nc(C8CNC8)oc7c(F)c6C5)CC4)OC3=O)nc2N1 (single isomer, unassigned) [Example 111, 6-[8-[[2-(azetidin-3-yl)-8-fluoro-6,7-dihydro-5H-cyclopenta[f][1,3]benzoxazol-6-yl]methyl]-2-oxo-1-oxa-3,8-diazaspiro[4.5]decan-3-yl]-4H-pyrido[3,2-b][1,4]oxazin-3-one] | 0.5 (≈ 0.911 µM) | –
5 | O=C1COc2ccc(N3CC4(CCN(CC5Cc6cc7nc(C8CNC8)oc7c(F)c6C5)CC4)OC3=O)nc2N1 (single isomer, unassigned) [Example 112, 6-[8-[[2-(azetidin-3-yl)-8-fluoro-6,7-dihydro-5H-cyclopenta[f][1,3]benzoxazol-6-yl]methyl]-2-oxo-1-oxa-3,8-diazaspiro[4.5]decan-3-yl]-4H-pyrido[3,2-b][1,4]oxazin-3-one] | – | Escherichia coli growth inhibition MIC [2]: 0.5 mg/L
6 | O=C1COc2ncc(N3CC4(CCN(CC5Cc6cc7nnn(C8CNC8)c7c(F)c6C5)CC4)OC3=O)nc2N1 (single isomer, unassigned) [Example 113, formic acid] | – | MIC (ATCC25922, read-out: Escherichia coli growth inhibition MIC, strain Escherichia coli ATCC 25922, 18-24 hours at 35±2° C., lowest concentration for complete growth inhibition (no visible growth)): 0.125 mg/L (≈ 0.227 µM)
7 | O=C1COc2ncc(N3CC4(CCN(CC5Cc6cc7nnn(C8CNC8)c7c(F)c6C5)CC4)OC3=O)nc2N1.O=CO (single isomer, unassigned) [Example 114] | 0.25 | –
8 | O=C1COc2ncc(N3CC4(CCN(CC5Cc6cc7c(nnn7C7CNC7)c(F)c6C5)CC4)OC3=O)nc2N1.O=CO (single isomer, unassigned) [Example 115, 6-[2-oxo-8-[[3-(azetidin-3-yl)-8-fluoro-6,7-dihydro-5H-cyclopenta[f]benzotriazol-6-yl]methyl]-1-oxa-3,8-diazaspiro[4.5]decan-3-yl]-4H-pyrazino[2,3-b][1,4]oxazin-3-one; formic acid] | 0.5 | –
9 | O=C1COc2ncc(N3CC4(CCN(CC5Cc6cc7c(nnn7C7CNC7)c(F)c6C5)CC4)OC3=O)nc2N1.O=CO (single isomer, unassigned) [Example 116, 6-[2-oxo-8-[[3-(azetidin-3-yl)-8-fluoro-6,7-dihydro-5H-cyclopenta[f]benzotriazol-6-yl]methyl]-1-oxa-3,8-diazaspiro[4.5]decan-3-yl]-4H-pyrazino[2,3-b][1,4]oxazin-3-one; formic acid] | – | Escherichia coli growth inhibition MIC [3]: 0.25 mg/L
10 | CNCCn1nnc2c(F)c3c(c(F)c21)CC(CN1CCC2(CC1)CN(c1cnc4c(n1)NC(=O)CO4)C(=O)O2)C3 (single isomer, unassigned) [Example 118, 6-[2-oxo-8-[[4,8-difluoro-1-[2-(methylamino)ethyl]-6,7-dihydro-5H-cyclopenta[f]benzotriazol-6-yl]methyl]-1-oxa-3,8-diazaspiro[4.5]decan-3-yl]-4H-pyrazino[2,3-b][1,4]oxazin-3-one] | 0.125 (≈ 0.219 µM) | –
11 | CNCCn1nnc2c(F)c3c(c(F)c21)CC(CN1CCC2(CC1)CN(c1cnc4c(n1)NC(=O)CO4)C(=O)O2)C3 (single isomer, unassigned) [Example 119, 6-[2-oxo-8-[[4,8-difluoro-1-[2-(methylamino)ethyl]-6,7-dihydro-5H-cyclopenta[f]benzotriazol-6-yl]methyl]-1-oxa-3,8-diazaspiro[4.5]decan-3-yl]-4H-pyrazino[2,3-b][1,4]oxazin-3-one] | – | Escherichia coli growth inhibition MIC [2]: 0.125 mg/L
12 | O=C1COc2ncc(N3CC4(CCN(CC5Cc6c(c(F)c7c(nnn7C7CNC7)c6F)C5)CC4)OC3=O)nc2N1.O=CO (single isomer, unassigned) [Example 120, 6-[8-[[1-(azetidin-3-yl)-4,8-difluoro-6,7-dihydro-5H-cyclopenta[f]benzotriazol-6-yl]methyl]-2-oxo-1-oxa-3,8-diazaspiro[4.5]decan-3-yl]-4H-pyrazino[2,3-b][1,4]oxazin-3-one; formic acid] | 0.25 | –
13 | O=C1COc2ncc(N3CC4(CCN(CC5Cc6c(c(F)c7c(nnn7C7CNC7)c6F)C5)CC4)OC3=O)nc2N1.O=CO (single isomer, unassigned) [Example 121, 6-[8-[[1-(azetidin-3-yl)-4,8-difluoro-6,7-dihydro-5H-cyclopenta[f]benzotriazol-6-yl]methyl]-2-oxo-1-oxa-3,8-diazaspiro[4.5]decan-3-yl]-4H-pyrazino[2,3-b][1,4]oxazin-3-one; formic acid] | – | Escherichia coli growth inhibition MIC [3]: 0.125 mg/L
14 | O=C1COc2ncc(N3CC4(CCN(CC5Cc6c(c(F)c7c(nnn7CCNC7CC7)c6F)C5)CC4)OC3=O)nc2N1.O=CO (single isomer, unassigned) [Example 124, 6-[8-[[1-[2-(Cyclopropylamino)ethyl]-4,8-difluoro-6,7-dihydro-5H-cyclopenta[f]benzotriazol-6-yl]methyl]-2-oxo-1-oxa-3,8-diazaspiro[4.5]decan-3-yl]-4H-pyrazino[2,3-b][1,4]oxazin-3-one;formic acid] | 0.5 | –
15 | O=C1COc2ncc(N3CC4(CCN(CC5Cc6c(c(F)c7c(nnn7CCNC7CC7)c6F)C5)CC4)OC3=O)nc2N1.O=CO (single isomer, unassigned) [Example 125, 6-[8-[[1-[2-(Cyclopropylamino)ethyl]-4,8-difluoro-6,7-dihydro-5H-cyclopenta[f]benzotriazol-6-yl]methyl]-2-oxo-1-oxa-3,8-diazaspiro[4.5]decan-3-yl]-4H-pyrazino[2,3-b][1,4]oxazin-3-one;formic acid] | – | Escherichia coli growth inhibition MIC [2]: 0.25 mg/L
16 | CNCCn1cnc2c(F)c3c(c(F)c21)CC(CN1CCC2(CC1)CN(c1cnc4c(n1)NC(=O)CO4)C(=O)O2)C3 (single isomer, unassigned) [Example 126, 6-[2-oxo-8-[[4,8-difluoro-1-[2-(methylamino)ethyl]-6,7-dihydro-5H-cyclopenta[f]benzimidazol-6-yl]methyl]-1-oxa-3,8-diazaspiro[4.5]decan-3-yl]-4H-pyrazino[2,3-b][1,4]oxazin-3-one] | 0.25 (≈ 0.44 µM) | –
17 | CNCCn1cnc2c(F)c3c(c(F)c21)CC(CN1CCC2(CC1)CN(c1cnc4c(n1)NC(=O)CO4)C(=O)O2)C3 (single isomer, unassigned) [Example 127] | – | Escherichia coli growth inhibition MIC [2]: 0.25 mg/L
18 | C[C@H](N)Cn1nnc2c(F)c3c(c(F)c21)CC(CN1CCC2(CC1)CN(c1cnc4c(n1)NC(=O)CO4)C(=O)O2)C3.Cl (single isomer, unassigned) [Example 130] | 0.25 | –
19 | C[C@H](N)Cn1nnc2c(F)c3c(c(F)c21)CC(CN1CCC2(CC1)CN(c1cnc4c(n1)NC(=O)CO4)C(=O)O2)C3.Cl (single isomer, unassigned) [Example 131] | – | Escherichia coli growth inhibition MIC (lowest concentration for complete growth inhibition (no visible growth), hydrochloride): 0.125 mg/L
20 | NCCn1nc2cc3c(c(F)c2n1)CC(CN1CCC2(CC1)CN(c1ccc4c(n1)NC(=O)CO4)C(=O)O2)C3 (single isomer, unassigned) [Example 132, 6-[2-oxo-8-[[2-(2-aminoethyl)-8-fluoro-6,7-dihydro-5H-cyclopenta[f]benzotriazol-6-yl]methyl]-1-oxa-3,8-diazaspiro[4.5]decan-3-yl]-4H-pyrido[3,2-b][1,4]oxazin-3-one dihydrochloride] | – | Escherichia coli growth inhibition MIC (lowest concentration for complete growth inhibition (no visible growth), dihydrochloride): 0.25 mg/L
